From ChEMBL document CHEMBL5661973, “BI 2536, a potent and selective inhibitor of polo-like kinase 1, inhibits tumor growth in vivo” (Curr Biol, 2007)
Calls of active or inactive are those of the source. The rule behind the calls is not given here.

Legend:
[1] = biological target: Serine/threonine-protein kinase Sgk1 (Homo sapiens, UniProt O00141); assay: Inhibition of SGK (unknown origin)
[2] = test system: BXPC-3; assay: Antitumor activity against human BXPC-3 cells xenografted female BomTac:NMRI-Foxn1nu mouse assessed as T/C at 50 mg/kg, iv twice per week administrated for 2 consecutive days relative to control; type: functional; conditions: time 4 day
[3] = biological target: Angiopoietin-1 receptor (Homo sapiens, UniProt Q02763); assay: Inhibition of Tie2 (unknown origin)
[4] = test system: HCT-116; assay: Antitumor activity against human HCT-116 cells xenografted female BomTac:NMRI-Foxn1nu mouse assessed as apparent diffusion coefficient of water at 50 mg/kg, iv administration and measured on day 4 by MRI assay; type: functional, organism-based; conditions: time 4.0 day
[5] = test system: NCI-H460; assay: Antitumor activity against human NCI-H460 cells xenografted female BomTac:NMRI-Foxn1nu mouse assessed as increase in histone H3 phosphorylation at 60 mg/kg, iv after 24 hrs administration by immunohistochemical method; type: functional, organism-based
[6] = test system: HeLa; assay: Antimitotic activity against human HeLa cells assessed as change in S phase at 60 nM incubated for 48 hrs by flow cytometric analysis; type: functional, cell-based
[7] = test system: HeLa; assay: Antimitotic activity against human HeLa cells assessed as change in anaphase at 25 nM incubated for 2 hrs by immunofluorescence analysis; type: functional, cell-based
[8] = test system: HeLa; assay: Antimitotic activity against human HeLa cells assessed as arrest in G2/M phase measuring by accumulation in 4N DNA content at 10 nM incubated for 24 hrs by flow cytometric analysis; type: functional, cell-based
[9] = test system: HeLa; assay: Antimitotic activity against human HeLa cells assessed as appearance of monopolar polo spindles at 100 to 1000 nM incubated for 2 hrs by immunofluorescence analysis; type: functional, cell-based; conditions: dose 100-1000 nM
[10] = test system: HeLa; assay: Antimitotic activity against human HeLa cells assessed as appearance and distribution of phenotypes at 50 nM incubated for 2 hrs by immunofluorescence analysis; type: functional, cell-based
[11] = test system: HeLa; assay: Antimitotic activity against human HeLa cells assessed as cell cycle at 10 nM incubated for 2 hrs by immunofluorescence analysis; type: functional, cell-based
[12] = biological target: Platelet-derived growth factor receptor alpha (Homo sapiens, UniProt P16234); assay: Inhibition of PDGFRa (unknown origin)
[13] = test system: TERT-RPE1; assay: Antimitotic activity against hTERT-RPE1 cells assessed as mitotic cell appearing typical polo phenotype at 100 nM by immunofluorescence analysis relative to control; type: functional, Homo sapiens
[14] = test system: HeLa; assay: Antimitotic activity against human HeLa cells assessed as accumulation in cleaved PARP p85 fragment at 60 nM incubated after 48 hrs by westernblot analysis; type: functional, cell-based
[15] = biological target: Receptor tyrosine-protein kinase erbB-4 (Homo sapiens, UniProt Q15303); assay: Inhibition of ErbB4 (unknown origin)
[16] = biological target: Mitogen-activated protein kinase 14 (Homo sapiens, UniProt Q16539); assay: Inhibition of p38alpha (unknown origin)
[17] = biological target: Phosphatidylinositol 4,5-bisphosphate 3-kinase catalytic subunit alpha isoform (Homo sapiens, UniProt P42336); assay: Inhibition of PI3Ka (unknown origin)
[18] = biological target: Macrophage-stimulating protein receptor (Homo sapiens, UniProt Q04912); assay: Inhibition of Ron (unknown origin)
[19] = biological target: Mitogen-activated protein kinase 11 (Homo sapiens, UniProt Q15759); assay: Inhibition of p38beta (unknown origin)
[20] = test system: NCI-H460; assay: Antitumor activity against human NCI-H460 cells xenografted female BomTac:NMRI-Foxn1nu mouse assessed as increase in mitotic index at 60 mg/kg, iv after 24 hrs administration by immunohistochemical method; type: functional, organism-based
[21] = biological target: T1, Dual specificity mitogen-activated protein kinase kinase 1 (Homo sapiens, UniProt Q02750); assay: Inhibition of MKK1 (unknown origin)
[22] = biological target: RAC-beta serine/threonine-protein kinase (Homo sapiens, UniProt P31751); assay: Inhibition of PKBbeta (unknown origin)
[23] = biological target: Fibroblast growth factor receptor 3 (Homo sapiens, UniProt P22607); assay: Inhibition of FGFR3 (unknown origin)
[24] = biological target: Serine/threonine-protein kinase PAK 2 (Homo sapiens, UniProt Q13177); assay: Inhibition of PAK2 (unknown origin)
[25] = biological target: T1, Dual specificity mitogen-activated protein kinase kinase 1; assay: Inhibition of MEK1 (unknown origin)
[26] = test system: HCT-116; assay: Antitumor activity against human HCT-116 cells xenografted female BomTac:NMRI-Foxn1nu mouse assessed as induction in tumor regression at 50 mg/kg, iv twice per week administrated for 2 consecutive days relative to control; type: functional, organism-based; conditions: time 4.0 day
[27] = test system: BRO melanoma cell line; assay: Antiproliferative activity against human BRO melanoma cell line assessed as inhibition in cell growth incubated for 72 hrs by Alamar Blue dye based fluorescence spectrophotometric analysis; type: functional
[28] = biological target: Ephrin type-A receptor 3 (Homo sapiens, UniProt P29320); assay: Inhibition of Hek (unknown origin)
[29] = test system: HeLa; assay: Antimitotic activity against human HeLa cells assessed as DNA breakdown at 60 nM incubated after 24 hrs by flow cytometric analysis; type: functional, cell-based
[30] = test system: NCI-H460; assay: Antitumor activity against human NCI-H460 cells xenografted female BomTac:NMRI-Foxn1nu mouse assessed as appearance of massive tumor cell at 60 mg/kg, iv after 48 hrs administration by TUNEL staining; type: functional, organism-based
[31] = biological target: Serine/threonine-protein kinase B-raf (Homo sapiens, UniProt P15056); assay: Inhibition of B-RAF (unknown origin)
[32] = test system: HCT-116; assay: Antitumor activity against human HCT-116 cells xenografted female BomTac:NMRI-Foxn1nu mouse assessed as tumor suppression at 40 mg/kg, iv twice per week administrated for 2 consecutive days relative to control; type: functional; conditions: time 2 day
[33] = biological target: Mitogen-activated protein kinase 12 (Homo sapiens, UniProt P53778); assay: Inhibition of p38gamma (unknown origin)
[34] = test system: TERT-RPE1; assay: Antimitotic activity against hTERT-RPE1 cells assessed as remaining cell arrest at 100 nM by immunofluorescence analysis relative to control; type: functional, Homo sapiens
[35] = biological target: Platelet-derived growth factor receptor beta (Homo sapiens, UniProt P09619); assay: Inhibition of PDGFRb (unknown origin)
[36] = test system: NCI-H460; assay: Antitumor activity against human NCI-H460 cells xenografted female BomTac:NMRI-Foxn1nu mouse assessed as appearance of cell apoptosis at 60 mg/kg, iv after 47 hrs administration by MRI assay; type: functional, organism-based
[37] = Toxicity in against human HCT-116 cells xenografted female BomTac:NMRI-Foxn1nu mouse assessed as body weight change at 40 mg/kg, iv twice per week administrated for 2 consecutive days; type: organism-based; conditions: in vivo, 96 h, time 4 day
[38] = biological target: Tyrosine-protein kinase CSK (Homo sapiens, UniProt P41240); assay: Inhibition of CSK (unknown origin)
[39] = test system: HeLa; assay: Antimitotic activity against human HeLa cells assessed as cell arrest in G2/M phase at 60 nM incubated for 48 hrs by flow cytometric analysis; type: functional, cell-based
[40] = test system: HeLa; assay: Antimitotic activity against human HeLa cells assessed as cell apoptosis at 60 nM incubated after 24 hrs by flow cytometric analysis; type: functional, cell-based
[41] = test system: HeLa; assay: Antimitotic activity against human HeLa cells assessed as DNA breakdown at 60 nM incubated after 48 hrs by flow cytometric analysis; type: functional, cell-based
[42] = biological target: Mitogen-activated protein kinase 8 (Homo sapiens, UniProt P45983); assay: Inhibition of JNK1 (unknown origin)
[43] = biological target: Serine/threonine-protein kinase Nek6 (Homo sapiens, UniProt Q9HC98); assay: Inhibition of Nek6 (unknown origin)
[44] = test system: HeLa; assay: Antimitotic activity against human HeLa cells assessed as accumulation in cleaved PARP p85 fragment at 60 nM incubated after 24 hrs by westernblot analysis; type: functional, cell-based
[45] = test system: HeLa; assay: Antimitotic activity against human HeLa cells assessed as accumulation of mitotic cells with spindles at 25 nM incubated for 2 hrs by immunofluorescence analysis; type: functional, cell-based
[46] = test system: A549; assay: Antitumor activity against human A549 cells xenografted female BomTac:NMRI-Foxn1nu mouse assessed as T/C at 50 mg/kg, iv twice per week administrated for 2 consecutive days relative to control; type: functional; conditions: time 4 day
[47] = biological target: Tyrosine-protein kinase ABL1 (Homo sapiens, UniProt P00519); assay: Inhibition of Abl (unknown origin)
[48] = biological target: RAF proto-oncogene serine/threonine-protein kinase (Homo sapiens, UniProt P04049); assay: Inhibition of C-RAF (unknown origin)
[49] = test system: HeLa; assay: Antimitotic activity against human HeLa cells assessed as cell apoptosis at 60 nM incubated after 48 hrs by flow cytometric analysis; type: functional, cell-based
[50] = test system: HCT-116; assay: Antitumor activity against human HCT-116 cells xenografted female BomTac:NMRI-Foxn1nu mouse assessed as T/C at 40 mg/kg, iv once per week administrated for 2 consecutive days relative to control; type: functional; conditions: time 4 day
[51] = test system: HeLa; assay: Antimitotic activity against human HeLa cells assessed as change in telophase at 25 nM incubated for 2 hrs by immunofluorescence analysis; type: functional, cell-based
[52] = organism: Mus musculus; assay: Inhibition of mouse Plk1
[53] = Toxicity in against human HCT-116 cells xenografted female BomTac:NMRI-Foxn1nu mouse assessed as body weight change at 40 mg/kg, iv once per week administrated for 2 consecutive days; type: organism-based; conditions: in vivo, 48 h, time 2 day
[54] = test system: HeLa; assay: Antimitotic activity against human HeLa cells assessed as centrosomal gamma tubulin recruitment at 100 to 2500 nM incubated for 2 hrs by immunofluorescence analysis; type: functional, cell-based; conditions: dose 100-2500 nM
[55] = test system: HeLa; assay: Antimitotic activity against human HeLa cells assessed as monopolar asters at 100 to 2500 nM incubated for 2 hrs by immunofluorescence analysis; type: functional, cell-based; conditions: dose 100-2500 nM
[56] = test system: HeLa S3; assay: Antiproliferative activity against human HeLa S3 cells assessed as inhibition in cell growth incubated for 72 hrs by Alamar Blue dye based fluorescence spectrophotometric analysis; type: functional; conditions: HeLa S3, 72 h
[57] = test system: HeLa; assay: Antimitotic activity against human HeLa cells assessed as accumulation multipolar spindles at 100 to 2500 nM incubated for 2 hrs by immunofluorescence analysis; type: functional, cell-based; conditions: dose 100-2500 nM
[58] = test system: HeLa; assay: Antimitotic activity against human HeLa cells assessed as accumulation in depolymerization of microtubules in interphase cells at 2500 nM incubated for 2 hrs by immunostaining; type: functional, cell-based

T1 sequence (Q02750 whole entry): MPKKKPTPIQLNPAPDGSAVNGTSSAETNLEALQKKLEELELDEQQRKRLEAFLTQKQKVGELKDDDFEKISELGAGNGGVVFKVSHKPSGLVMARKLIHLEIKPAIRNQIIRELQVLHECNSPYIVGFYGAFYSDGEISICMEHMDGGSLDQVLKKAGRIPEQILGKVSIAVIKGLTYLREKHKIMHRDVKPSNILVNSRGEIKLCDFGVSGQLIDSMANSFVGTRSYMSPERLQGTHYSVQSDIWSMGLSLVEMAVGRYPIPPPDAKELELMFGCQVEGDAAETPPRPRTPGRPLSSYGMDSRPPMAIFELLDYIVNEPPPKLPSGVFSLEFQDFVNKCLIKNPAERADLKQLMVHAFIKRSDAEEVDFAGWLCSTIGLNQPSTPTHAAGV
Sequence of Macrophage-stimulating protein receptor (Q04912 25-304 limits assumed): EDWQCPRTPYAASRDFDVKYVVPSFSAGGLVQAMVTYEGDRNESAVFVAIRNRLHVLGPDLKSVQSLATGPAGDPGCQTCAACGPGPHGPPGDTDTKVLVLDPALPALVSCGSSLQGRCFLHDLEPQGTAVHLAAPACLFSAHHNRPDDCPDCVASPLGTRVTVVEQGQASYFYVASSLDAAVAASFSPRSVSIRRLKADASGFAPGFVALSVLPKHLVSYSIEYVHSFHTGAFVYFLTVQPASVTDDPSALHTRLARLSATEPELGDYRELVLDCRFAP
Sequence of Macrophage-stimulating protein receptor (Q04912 310-1400 limits assumed): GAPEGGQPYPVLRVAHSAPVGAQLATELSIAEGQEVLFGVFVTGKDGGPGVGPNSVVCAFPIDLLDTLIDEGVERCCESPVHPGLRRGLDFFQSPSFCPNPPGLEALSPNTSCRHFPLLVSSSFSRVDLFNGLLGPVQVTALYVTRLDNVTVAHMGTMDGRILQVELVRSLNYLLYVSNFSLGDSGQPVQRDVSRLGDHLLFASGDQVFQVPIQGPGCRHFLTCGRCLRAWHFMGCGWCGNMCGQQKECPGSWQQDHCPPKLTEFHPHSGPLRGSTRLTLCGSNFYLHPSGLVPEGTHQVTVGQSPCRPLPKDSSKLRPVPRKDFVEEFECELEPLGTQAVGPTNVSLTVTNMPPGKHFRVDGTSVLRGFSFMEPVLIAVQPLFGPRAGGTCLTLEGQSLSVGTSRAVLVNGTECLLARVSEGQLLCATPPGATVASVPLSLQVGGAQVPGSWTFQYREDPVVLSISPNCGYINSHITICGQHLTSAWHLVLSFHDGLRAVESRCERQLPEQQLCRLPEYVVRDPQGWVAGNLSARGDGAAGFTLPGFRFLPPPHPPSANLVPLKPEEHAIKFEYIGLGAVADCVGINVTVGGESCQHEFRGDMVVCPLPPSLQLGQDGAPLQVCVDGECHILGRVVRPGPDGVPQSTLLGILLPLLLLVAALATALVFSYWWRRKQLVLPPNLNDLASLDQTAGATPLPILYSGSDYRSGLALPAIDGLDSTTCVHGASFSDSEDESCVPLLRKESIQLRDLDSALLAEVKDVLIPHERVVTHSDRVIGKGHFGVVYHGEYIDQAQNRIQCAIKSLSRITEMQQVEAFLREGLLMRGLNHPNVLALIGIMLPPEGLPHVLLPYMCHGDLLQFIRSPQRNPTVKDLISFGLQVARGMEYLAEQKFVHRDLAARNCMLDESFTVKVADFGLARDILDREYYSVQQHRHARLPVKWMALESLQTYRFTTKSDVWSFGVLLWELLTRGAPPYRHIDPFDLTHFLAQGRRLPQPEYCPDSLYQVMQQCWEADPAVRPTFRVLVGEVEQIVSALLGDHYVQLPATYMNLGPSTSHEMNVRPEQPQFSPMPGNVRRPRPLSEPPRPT
Sequence of Angiopoietin-1 receptor (Q02763 whole entry, the tested form may be a part): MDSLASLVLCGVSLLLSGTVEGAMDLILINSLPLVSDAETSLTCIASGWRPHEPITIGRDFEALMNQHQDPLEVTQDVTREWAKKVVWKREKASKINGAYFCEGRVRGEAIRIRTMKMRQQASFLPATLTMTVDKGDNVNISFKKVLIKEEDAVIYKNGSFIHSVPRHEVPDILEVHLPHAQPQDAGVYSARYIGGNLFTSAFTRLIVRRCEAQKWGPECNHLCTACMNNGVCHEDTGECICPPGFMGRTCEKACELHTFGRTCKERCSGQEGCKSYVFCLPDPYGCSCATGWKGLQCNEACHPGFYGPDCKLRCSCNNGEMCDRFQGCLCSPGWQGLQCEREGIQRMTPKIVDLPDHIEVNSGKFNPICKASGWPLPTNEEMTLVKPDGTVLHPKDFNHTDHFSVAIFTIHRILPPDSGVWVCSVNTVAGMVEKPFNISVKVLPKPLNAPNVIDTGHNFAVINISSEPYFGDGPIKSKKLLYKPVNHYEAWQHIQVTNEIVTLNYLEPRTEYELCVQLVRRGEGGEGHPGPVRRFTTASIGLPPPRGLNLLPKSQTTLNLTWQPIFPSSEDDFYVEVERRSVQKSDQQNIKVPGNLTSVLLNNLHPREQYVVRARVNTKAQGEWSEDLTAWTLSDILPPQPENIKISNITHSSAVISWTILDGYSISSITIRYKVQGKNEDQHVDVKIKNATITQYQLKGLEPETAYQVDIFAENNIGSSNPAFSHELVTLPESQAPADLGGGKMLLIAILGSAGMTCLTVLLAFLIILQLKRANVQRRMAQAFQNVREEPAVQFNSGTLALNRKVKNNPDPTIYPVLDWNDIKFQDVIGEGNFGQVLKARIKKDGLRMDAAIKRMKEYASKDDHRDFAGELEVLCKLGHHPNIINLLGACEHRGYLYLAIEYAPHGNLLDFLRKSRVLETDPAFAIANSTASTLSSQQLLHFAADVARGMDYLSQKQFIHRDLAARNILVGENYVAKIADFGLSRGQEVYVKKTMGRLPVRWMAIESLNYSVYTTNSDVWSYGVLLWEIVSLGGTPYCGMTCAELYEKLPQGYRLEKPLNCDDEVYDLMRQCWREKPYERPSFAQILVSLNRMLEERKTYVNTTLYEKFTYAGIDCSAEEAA
Sequence of RAF proto-oncogene serine/threonine-protein kinase (P04049 whole entry): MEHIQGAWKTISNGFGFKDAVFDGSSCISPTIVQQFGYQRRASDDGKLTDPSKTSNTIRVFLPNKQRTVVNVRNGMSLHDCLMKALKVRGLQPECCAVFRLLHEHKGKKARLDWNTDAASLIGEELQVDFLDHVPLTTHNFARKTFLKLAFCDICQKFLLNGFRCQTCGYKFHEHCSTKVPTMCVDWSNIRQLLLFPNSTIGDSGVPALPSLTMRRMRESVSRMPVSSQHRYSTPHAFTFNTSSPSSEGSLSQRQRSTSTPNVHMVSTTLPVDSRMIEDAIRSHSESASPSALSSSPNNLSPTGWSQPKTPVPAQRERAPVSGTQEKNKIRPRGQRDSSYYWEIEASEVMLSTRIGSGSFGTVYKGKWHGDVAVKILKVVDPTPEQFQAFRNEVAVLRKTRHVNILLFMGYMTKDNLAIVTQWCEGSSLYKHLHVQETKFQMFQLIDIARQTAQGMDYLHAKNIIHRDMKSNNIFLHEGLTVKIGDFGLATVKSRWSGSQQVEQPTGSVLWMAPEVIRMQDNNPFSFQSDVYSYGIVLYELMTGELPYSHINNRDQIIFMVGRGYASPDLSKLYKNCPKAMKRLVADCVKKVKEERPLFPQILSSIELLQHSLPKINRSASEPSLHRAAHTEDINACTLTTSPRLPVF
Sequence of Serine/threonine-protein kinase Nek6 (Q9HC98 whole entry, the tested form may be a part): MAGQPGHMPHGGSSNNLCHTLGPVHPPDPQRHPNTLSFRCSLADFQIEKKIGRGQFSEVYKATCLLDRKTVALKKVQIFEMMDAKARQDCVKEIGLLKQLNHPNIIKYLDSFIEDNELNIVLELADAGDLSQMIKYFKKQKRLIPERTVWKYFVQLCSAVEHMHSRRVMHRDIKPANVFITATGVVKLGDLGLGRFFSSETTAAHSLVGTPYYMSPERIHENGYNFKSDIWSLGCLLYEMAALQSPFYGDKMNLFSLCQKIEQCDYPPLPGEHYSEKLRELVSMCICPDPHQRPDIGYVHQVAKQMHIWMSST
Sequence of Mitogen-activated protein kinase 11 (Q15759 whole entry): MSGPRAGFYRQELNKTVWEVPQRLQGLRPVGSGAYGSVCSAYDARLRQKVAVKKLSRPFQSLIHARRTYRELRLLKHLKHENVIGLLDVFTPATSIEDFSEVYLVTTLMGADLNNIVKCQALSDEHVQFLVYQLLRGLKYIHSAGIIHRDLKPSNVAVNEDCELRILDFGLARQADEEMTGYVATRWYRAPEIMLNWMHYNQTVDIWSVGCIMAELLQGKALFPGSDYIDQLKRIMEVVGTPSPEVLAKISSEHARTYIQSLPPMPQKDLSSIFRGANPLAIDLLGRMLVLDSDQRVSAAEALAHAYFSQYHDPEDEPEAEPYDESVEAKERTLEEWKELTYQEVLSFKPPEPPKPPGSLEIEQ
Sequence of Mitogen-activated protein kinase 8 (P45983 whole entry): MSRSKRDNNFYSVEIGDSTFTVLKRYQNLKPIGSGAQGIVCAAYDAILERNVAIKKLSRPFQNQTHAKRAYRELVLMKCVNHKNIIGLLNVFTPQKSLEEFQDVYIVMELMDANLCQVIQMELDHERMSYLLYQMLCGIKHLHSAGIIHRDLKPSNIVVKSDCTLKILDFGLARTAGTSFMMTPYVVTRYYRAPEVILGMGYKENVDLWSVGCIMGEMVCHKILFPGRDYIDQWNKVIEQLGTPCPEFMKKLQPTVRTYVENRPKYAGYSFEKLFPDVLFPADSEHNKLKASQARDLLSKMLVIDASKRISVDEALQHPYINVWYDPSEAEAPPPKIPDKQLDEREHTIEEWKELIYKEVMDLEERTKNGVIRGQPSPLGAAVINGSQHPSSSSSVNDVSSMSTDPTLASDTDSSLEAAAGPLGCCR
Sequence of Mitogen-activated protein kinase 14 (Q16539 whole entry, canonical isoform): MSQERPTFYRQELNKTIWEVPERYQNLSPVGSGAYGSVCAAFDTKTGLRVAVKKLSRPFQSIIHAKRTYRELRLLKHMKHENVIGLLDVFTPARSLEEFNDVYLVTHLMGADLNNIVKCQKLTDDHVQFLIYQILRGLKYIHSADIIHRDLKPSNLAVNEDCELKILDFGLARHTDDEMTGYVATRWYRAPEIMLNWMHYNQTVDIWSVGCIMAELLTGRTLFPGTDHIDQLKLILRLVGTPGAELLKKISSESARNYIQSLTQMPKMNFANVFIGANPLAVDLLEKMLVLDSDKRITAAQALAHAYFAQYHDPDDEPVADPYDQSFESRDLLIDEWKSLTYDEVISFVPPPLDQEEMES

SMILES: CC[C@@H]1C(=O)N(C)c2cnc(Nc3ccc(C(=O)NC4CCN(C)CC4)cc3OC)nc2N1C1CCCC1 [BI-2536]
- IC50 [1]: > 10 µM
- T/C [2]: 5%
- IC50 [3]: 6.55 µM
- Activity [4]: Active
- Activity [5]: Active
- Activity [6]: inactive
- Activity [7]: inactive
- Activity [8]: Active
- Activity [9]: Active
- Activity [10]: Active
- Activity [11]: Active
- IC50 [12]: > 10 µM
- Activity [13]: ~70%
- Activity [14]: Active
- IC50 [15]: 9.91 µM
- IC50 [16]: > 10 µM
- IC50 [17]: 2.41 µM
- IC50 [18]: > 10 µM
- IC50 [19]: > 10 µM
- Activity [20]: Active
- IC50 [21]: > 10 µM
- IC50 [22]: > 10 µM
- IC50 [23]: > 10 µM
- IC50 [24]: > 10 µM
- IC50 [25]: > 10 µM
- Activity [26]: Active
- EC50 [27]: 0.002 µM
- IC50 [28]: > 10 µM
- Activity [29]: Active
- Activity [30]: Active
- IC50 [31]: > 10 µM
- Activity [32]: 100%
- IC50 [33]: > 10 µM
- Activity [34]: ~30%
- IC50 [35]: > 10 µM
- Activity [36]: Active
- Activity [37]: Non-Toxic
- IC50 [38]: > 10 µM
- Activity [39]: Active
- Activity [40]: Active
- Activity [41]: Active
- IC50 [42]: > 10 µM
- IC50 [43]: > 10 µM
- Activity [44]: Active
- Activity [45]: Active
- T/C [46]: 14%
- IC50 [47]: > 10 µM
- IC50 [48]: > 10 µM
- Activity [49]: Active
- T/C [50]: 16%
- Activity [51]: inactive
- inhibition [52]: Active
- Activity [53]: Non-Toxic

SMILES: COc1cc(OC)c(/C=C/S(=O)(=O)Cc2ccc(OC)c(NCC(=O)O)c2)c(OC)c1 [RIGOSERTIB]
- Activity [54]: Active
- Activity [55]: inactive
- EC50 [56]: 0.045 µM
- Activity [57]: Active
- Activity [58]: Active
